Laboratory results as given in patent US8895611B1, “Cytotoxic compounds for treating cancer” (King Fahd University of Petroleum and Minerals, priority 2013, dated 2014).

Legend:
[1] = system: human gastric cancer cells (SGC-7901); experiment: MTT cell proliferation / cytotoxicity assay with trypan blue dye exclusion, SGC-7901 cells; format: cell-based; conditions: for activity / inhibition against gastric cancer cells SGC-7901: after 24 and 72 hours of treatment, FIGS. 1A-3B
Experimental: (§1) In FIGS. 1A-3B, the cells were treated with a concentration of 10 μM of each compound.
(§2) The anti-proliferative effect was measured by MTT assay.
(§3) Six duplicate wells were set up for each sample, and cells untreated with a compound served as a control. Treatment was conducted at 24 and 72 hours, respectively. After incubation, 10 μL MTT (6 g/L, Sigma) was added to each well and the incubation was continued for 4 hours at 37° C. After removal of the medium, MTT stabilization solution (dimethylsulphoxide: ethanol=1:1) was added to each well, and shaken for ten minutes until all crystals were dissolved. Then, optical density was detected in a micro plate reader at 550 nm wavelength using an enzyme-linked immunosorbent assay (ELISA) reader. Each assay was performed in triplicate. Cell number and viability were determined by trypan blue dye exclusion analysis.
(§4) The cytotoxicity assay was performed with various concentrations of the synthesized gold (III) complexes on PC-3 and SGC-7901 cells.

[2] = system: prostate cancer cells (PC-3); experiment: MTT cell proliferation / cytotoxicity assay with trypan blue dye exclusion, PC-3 cells; format: cell-based, human; conditions: for activity / inhibition against human prostate cancer cells (PC-3): after 24 and 72 hours of treatment, FIGS. 1A-3B
Experimental: as §1, §2, §3, §4

| Molecule | activity / inhibition against gastric cancer cells SGC-7901 ([1]; 10 μM) | activity / inhibition against human prostate cancer cells (PC-3) ([2]; 10 μM) | cytotoxic effect on SGC-7901 cells, compound 1 compared with compound 2 ([1]; 10 μM, one, two and three days, FIG. 7B) | cytotoxic effect on PC-3 cells, compound 1 compared with compound 2 ([2]; 10 μM, one, two and three days, FIG. 7A) | cell proliferation of PC-3 cells compared with SGC-7901 cells ([2]; fixed 10 μM, after 72 hours, FIGS. 1A and 1B) | bioactivity on SGC-7901 cells, trans-(1R,2R) compared with trans-(1S,2S) isomer ([1]; conclusion from FIGS. 1A-6B) | bioactivity on PC-3 cells, trans-(1R,2R) compared with trans-(1S,2S) isomer ([2]; conclusion from FIGS. 1A-6B) |
| --- | --- | --- | --- | --- | --- | --- | --- |
| trans-(±)-1,2-(DACH)AuCl3 [compound 2] | moderate inhibition | moderate inhibition | – | – | – | – | – |
| cis-(±)-1,2-(DACH)AuCl3 [compound 1] | potentially high activity | potentially high activity | higher cytotoxic effect in comparison with the same concentration of compound 2 | higher cytotoxic effect in comparison with the same concentration of compound 2 | bit higher than that of the SGC-7901 cells | – | – |
| N[C@H]1CCCC[C@@H]1N.[Cl][Au]([Cl])[Cl] [compound 3, (S,S)-(+)-1,2-(DACH)AuCl3] | moderate inhibition | moderate inhibition | – | – | – | no significant difference in the bioactivity | no significant difference in the bioactivity |
